Measurements taken from BindingDB's records for doi:10.7270/Q2T72HDT (Dupont Pharmaceuticals, 1995).

Key:
[1] = molecular target: T1, Sterol O-acyltransferase 1 (Rattus norvegicus, UniProt O70536); experiment: ChEBML_28360
T1 sequence (O70536 whole entry): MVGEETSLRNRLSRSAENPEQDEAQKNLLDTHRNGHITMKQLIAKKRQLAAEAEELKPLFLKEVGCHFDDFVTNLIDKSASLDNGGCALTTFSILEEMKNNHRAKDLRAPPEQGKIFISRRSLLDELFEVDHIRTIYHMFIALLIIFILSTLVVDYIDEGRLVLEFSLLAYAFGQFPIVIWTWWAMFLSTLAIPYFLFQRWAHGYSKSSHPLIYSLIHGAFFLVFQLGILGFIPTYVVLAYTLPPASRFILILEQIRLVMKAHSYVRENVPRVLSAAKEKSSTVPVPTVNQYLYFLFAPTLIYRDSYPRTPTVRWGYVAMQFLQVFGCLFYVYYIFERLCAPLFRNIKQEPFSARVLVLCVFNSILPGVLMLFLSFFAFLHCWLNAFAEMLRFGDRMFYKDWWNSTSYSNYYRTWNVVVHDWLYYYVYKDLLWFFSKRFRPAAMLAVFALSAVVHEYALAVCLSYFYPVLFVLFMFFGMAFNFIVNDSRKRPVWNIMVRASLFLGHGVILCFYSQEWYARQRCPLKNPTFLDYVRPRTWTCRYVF
From the text: In vitro inhibition of Acyl coenzyme A:cholesterol acyltransferase (ACAT) in rat hepatic microsomes

[2] = molecular target: T2, Sterol O-acyltransferase 1 (Mus musculus, UniProt Q61263); experiment: ChEBML_28026
T2 sequence (Q61263 whole entry): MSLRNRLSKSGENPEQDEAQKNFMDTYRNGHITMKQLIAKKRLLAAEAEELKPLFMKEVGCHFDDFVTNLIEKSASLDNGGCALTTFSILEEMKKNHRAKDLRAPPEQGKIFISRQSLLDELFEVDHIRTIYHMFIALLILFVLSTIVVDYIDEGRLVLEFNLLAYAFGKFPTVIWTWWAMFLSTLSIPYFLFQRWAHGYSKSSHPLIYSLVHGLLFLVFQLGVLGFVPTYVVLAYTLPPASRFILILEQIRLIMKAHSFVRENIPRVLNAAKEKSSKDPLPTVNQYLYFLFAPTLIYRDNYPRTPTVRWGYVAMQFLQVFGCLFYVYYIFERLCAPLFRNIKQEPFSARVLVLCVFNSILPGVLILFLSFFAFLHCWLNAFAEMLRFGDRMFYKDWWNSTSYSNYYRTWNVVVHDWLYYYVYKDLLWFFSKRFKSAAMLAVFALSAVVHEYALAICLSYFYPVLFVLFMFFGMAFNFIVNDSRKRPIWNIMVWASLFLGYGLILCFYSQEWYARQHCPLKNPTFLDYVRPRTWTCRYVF
From the text: Inhibition of Acyl coenzyme A:cholesterol acyltransferase (ACAT) in J774 Macrophage cell culture

SMILES | IC50 [1] [nM] | IC50 [2] [nM]
COc1ccc(-c2nc(SCCCCCN(CCCCCSc3nc(-c4ccccc4)c(-c4ccccc4)[nH]3)C(=O)NC(C)C)[nH]c2-c2ccc(OC)cc2)cc1 | 90 | 100
COc1ccc(-c2nc(SCCCCCN(CCCCCSc3nc(-c4ccc(OC)cc4)c(-c4ccc(OC)cc4)[nH]3)C(=O)NC(C)C)[nH]c2-c2ccc(OC)cc2)cc1 | 90 | 10
CN(C)c1ccc(-c2nc(SCCCCCN(CCCCCSc3nc(-c4ccccc4)c(-c4ccccc4)[nH]3)C(=O)Nc3ccc(F)cc3F)[nH]c2-c2ccc(N(C)C)cc2)cc1 | 3 | 450
c1ccc(-c2nc(SCCCSCCCSc3nc(-c4ccccc4)c(-c4ccccc4)[nH]3)[nH]c2-c2ccccc2)cc1 |  | 7960
O=C(Nc1ccc(F)cc1F)N(CCCCCSc1nc(-c2ccccc2)c(-c2ccccc2)[nH]1)CCc1ccccn1 | 80 | 2440
CC(C)NC(=O)N(CCCCCSc1nc(-c2ccccc2)c(-c2ccccc2)[nH]1)CCc1ccccn1 | 190 | 3050
Cc1nc2ccccc2n1CCCSCCCSc1nc(-c2ccccc2)c(-c2ccccc2)[nH]1 | 250 | 7270
c1ccc(-c2nc(SCCCCCSCc3ccccn3)[nH]c2-c2ccccc2)cc1 | 310 | 3930
O=C(Nc1ccc(F)cc1F)N(CCCCCSc1nc(-c2ccccc2)c(-c2ccccc2)[nH]1)c1ccccn1 | 660 | 790
COc1ccc(-c2nc(SCCCCCN(CCc3ccccn3)C(=O)NC(C)C)[nH]c2-c2ccc(OC)cc2)cc1 | 260 | 90
COc1ccc(-c2nc(SCCCCCN(CCc3ccccn3)C(=O)Nc3ccc(F)cc3F)[nH]c2-c2ccc(OC)cc2)cc1 | 300 | 690

Continued, values first:

IC50 [1] [nM] | IC50 [2] [nM] | SMILES
134 | 370 | CN(C)c1ccc(-c2nc(SCCOCCSc3nc(-c4ccc(N(C)C)cc4)c(-c4ccc(N(C)C)cc4)[nH]3)[nH]c2-c2ccc(N(C)C)cc2)cc1
 | 3870 | COc1ccc(-c2nc(SCCOCCSc3nc(-c4ccccc4)c(-c4ccccc4)[nH]3)[nH]c2-c2ccc(OC)cc2)cc1
26 | 6550 | c1ccc(-c2nc(SCCOCCSc3nc(-c4ccccc4)c(-c4ccccc4)[nH]3)[nH]c2-c2ccccc2)cc1
 | 3920 | c1ccc(-c2nc(SCCCCCOCCc3ccccn3)[nH]c2-c2ccccc2)cc1
 | 5500 | COc1ccc(-c2nc(SCCCCCN(CCc3nn[nH]n3)C(=O)NC(C)C)[nH]c2-c2ccc(OC)cc2)cc1
30 | 60 | CC(C)NC(=O)N(CCCCCSc1nc(-c2ccccc2)c(-c2ccccc2)[nH]1)CCCCCSc1nc(-c2ccc(N(C)C)cc2)c(-c2ccc(N(C)C)cc2)[nH]1
 | 5500 | COc1ccc(-c2nc(SCCCCCN(CCCn3ccnc3)C(=O)NC(C)C)[nH]c2-c2ccc(OC)cc2)cc1
2040 | 2990 | CN(C)c1ccc(-c2nc(SCCOCCSc3[nH]cnc4ncnc3-4)[nH]c2-c2ccc(N(C)C)cc2)cc1
6230 | 60 | COc1ccc(-c2nc(SCCCCCN(Cc3ccccn3)C(=O)NC(C)C)[nH]c2-c2ccc(OC)cc2)cc1
 | 3430 | COc1ccc(-c2nc(SCCOCCn3c(C)nc4ccccc43)[nH]c2-c2ccc(OC)cc2)cc1
 | 190 | COc1ccc(-c2nc(SCCCCCN(Cc3ccccn3)C(=O)Nc3ccc(F)cc3F)[nH]c2-c2ccc(OC)cc2)cc1
100 | 940 | CC(C)NC(=O)N(CCCCCSc1nc(-c2ccccc2)c(-c2ccccc2)[nH]1)c1ccccn1
